Key:
Format in all cases: in vivo
Kochia (Kochia scoparia) [1] = test: Test A preemergence
Summary of the method: (§1)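 Greenhouse, ~10 d after spray; visual injury vs untreated controls, 0 = no effect, 100 = complete control. Preemergence: directed soil spray over planted seeds. Postemergence: plants 2–10 cm, 1–2 leaf stage. Loam/sand blend. Compound in non-phytotoxic solvent with surfactant.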

[2] = test system: barnyardgrass (Echinochloa crus-galli); test: Test A preemergence
Summary of the method: as §1

[3] = test system: giant foxtail (Setaria faberii); test: Test A preemergence
Summary of the method: as §1

[4] = test system: pigweed (Amaranthus retroflexus); test: Test A preemergence
[5] = test system: ragweed (common ragweed, Ambrosia elatior); test: Test A preemergence
Summary of the method: as §1

[6] = test system: ryegrass, Italian (Italian ryegrass, Lolium multiflorum); test: Test A preemergence
Summary of the method: as §1

[7] = test system: Galium (catchweed bedstraw, Galium aparine); test: Test A postemergence; settings: postemergence, 0 to 100 scale (0 no effect, 100 complete control)
Summary of the method: as §1

Kochia (Kochia scoparia) [8] = test: Test A postemergence; settings: postemergence, 0 to 100 scale (0 no effect, 100 complete control)
Summary of the method: as §1

[9] = test system: barnyardgrass (Echinochloa crus-galli); test: Test A postemergence; settings: postemergence
Summary of the method: as §1

[10] = test system: blackgrass (Alopecurus myosuroides); test: Test A postemergence; settings: postemergence, 0 to 100 scale (0 no effect, 100 complete control)
Summary of the method: as §1

corn (Zea mays) [11] = test: Test A postemergence; settings: postemergence
Summary of the method: as §1

[12] = test system: giant foxtail (Setaria faberii); test: Test A postemergence; settings: postemergence
Summary of the method: as §1

[13] = test system: pigweed (Amaranthus retroflexus); test: Test A postemergence; settings: postemergence
Summary of the method: as §1

[14] = test system: ragweed (common ragweed, Ambrosia elatior); test: Test A postemergence; settings: postemergence, 0 to 100 scale (0 no effect, 100 complete control)
Summary of the method: as §1

[15] = test system: ryegrass, Italian (Italian ryegrass, Lolium multiflorum); test: Test A postemergence; settings: postemergence, 0 to 100 scale (0 no effect, 100 complete control)
Summary of the method: as §1

[16] = test system: wheat (Triticum aestivum); test: Test A postemergence; settings: postemergence
Summary of the method: as §1

[17] = test system: barnyardgrass (Echinochloa crus-galli); test: Test B flooded paddy test; settings: Flood, 250 g ai/ha; 0 to 100 scale where 0 is no effect and 100 is complete control; 13 to 15 d
Summary of the method: (§2)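 Evaluation by eye, against controls, occurred 13–15 d post-treatment in a greenhouse, using a 0 (no effect) to 100 (complete control) scale. Application was into the paddy water, 3 cm deep over the soil, on 2-leaf plants.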

[18] = test system: ducksalad (Heteranthera limosa); test: Test B flooded paddy test; settings: Flood, 250 g ai/ha; 0 to 100 scale where 0 is no effect and 100 is complete control; 13 to 15 d
Summary of the method: as §2

rice (Oryra sativa) = test: Test B flooded paddy test; settings: Flood, 250 g ai/ha; 0 to 100 scale where 0 is no effect and 100 is complete control; 13 to 15 d
Summary of the method: as §2

[19] = test system: sedge, umbrella (small-flower umbrella sedge, Cyperus difformis); test: Test B flooded paddy test; settings: Flood, 250 g ai/ha; 0 to 100 scale where 0 is no effect and 100 is complete control; 13 to 15 d
Summary of the method: as §2

[20] = test system: barnyardgrass (Echinochloa crus-galli); test: Test C flooded paddy test; settings: Flood; for Plant response rating (scale of 0 to 100), Barnyardgrass: 0 is no effect, 100 is complete control
Summary of the method: (§3)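 Plants grown to the 2-leaf stage in pots flooded to 3 cm above soil; compounds applied directly into the paddy water, depth held throughout. After 13 to 15 d in greenhouse, injury visually rated against untreated controls on a 0–100 scale (0 no effect, 100 complete control).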

[21] = test system: ducksalad (Heteranthera limosa); test: Test C flooded paddy test; settings: Flood; for Plant response rating (scale of 0 to 100), Ducksalad: 0 is no effect, 100 is complete control
Summary of the method: as §3

rice (Oryza sativa) = test: Test C flooded paddy test; settings: Flood; for Plant response rating (scale of 0 to 100), Rice: 0 is no effect, 100 is complete control
Summary of the method: as §3

[22] = test system: sedge, umbrella (small-flower umbrella sedge, Cyperus difformis); test: Test C flooded paddy test; settings: Flood; for Plant response rating (scale of 0 to 100), Sedge, Umbrella: 0 is no effect, 100 is complete control
Summary of the method: as §3

corn (Zea mays) [23] = test: Test A preemergence; settings: Preemergence, 1000 g ai/ha; 0 is no effect, 100 is complete control
Summary of the method: as §1

[24] = test system: crabgrass, large (Digitaria sanguinalis); test: Test A preemergence; settings: Preemergence, 1000 g ai/ha; 0 is no effect, 100 is complete control
Summary of the method: as §1

[25] = test system: morningglory (Ipomoea spp.); test: Test A preemergence; settings: Preemergence, 1000 g ai/ha; 0 is no effect, 100 is complete control
Summary of the method: as §1

[26] = test system: velvetleaf (Abutilon theophrasti); test: Test A preemergence; settings: Preemergence, 1000 g ai/ha; 0 is no effect, 100 is complete control
Summary of the method: as §1

[27] = test system: wheat (Triticum aestivum); test: Test A preemergence; settings: Preemergence, 1000 g ai/ha; 0 is no effect, 100 is complete control
Summary of the method: as §1

[28] = test system: crabgrass, large (Digitaria sanguinalis); test: Test A postemergence; settings: 1000 g ai/ha, postemergence; 0 to 100 scale, 0 no effect, 100 complete control
Summary of the method: as §1

[29] = test system: morningglory (Ipomoea spp.); test: Test A postemergence; settings: 1000 g ai/ha, postemergence; 0 to 100 scale, 0 no effect, 100 complete control
Summary of the method: as §1

[30] = test system: velvetleaf (Abutilon theophrasti); test: Test A postemergence; settings: 1000 g ai/ha, postemergence; 0 to 100 scale, 0 no effect, 100 complete control
Summary of the method: as §1

[31] = 125 g ai/ha, Preemergence, visual injury after approximately 10 d, 0 to 100 scale where 0 is no effect and 100 is complete control
[32] = 500 g ai/ha, preemergence, 0 to 100 scale, 0 = no effect, 100 = complete control
[33] = 125 g ai/ha, visual rating after approx. 10 d
[34] = 500 g ai/ha, visual injury, approx. 10 d
[35] = 125 g ai/ha, visual rating after approx. 10 d, 0 to 100 scale (0 no effect, 100 complete control)
[36] = 500 g ai/ha, visual injury, 0 to 100 scale (0 no effect, 100 complete control), approx. 10 d
[37] = 31 g ai/ha, scale 0 to 100 (0 no effect, 100 complete control), 13 to 15 d
[38] = Preemergence, 1000 g ai/ha, 0 is no effect, 100 is complete control
[39] = 1000 g ai/ha, 0 to 100 scale, 0 no effect, 100 complete control

CN1CC(c2cc(F)cc(F)c2)C(C(=O)Nc2ccccc2F)C1=O (centres unmarked) [Compound 643]
Plant response rating, Kochia (Kochia (Kochia scoparia) [1]; [31]): 0
Plant response rating, Kochia (Kochia (Kochia scoparia) [1]; [32]): 40
Plant response rating, Barnyardgrass [2, 31]: 90
Plant response rating, Barnyardgrass [2, 32]: 90
Plant response rating, Foxtail, Giant [3, 31]: 100
Plant response rating, Foxtail, Giant [3, 32]: 100
Plant response rating, Pigweed [4, 31]: 0
Plant response rating, Pigweed [4, 32]: 20
Plant response rating, Ragweed [5, 31]: 0
Plant response rating, Ragweed [5, 32]: 20
Plant response rating, Ryegrass, Italian [6, 31]: 20
Plant response rating, Ryegrass, Italian [6, 32]: 90
Plant response rating, Galium [7, 33]: 0
Plant response rating, Galium [7, 34]: 50
Plant response rating, Kochia (Kochia (Kochia scoparia) [8]; [33]): 0
Plant response rating, Kochia (Kochia (Kochia scoparia) [8]; [34]): 20
Plant response rating, Barnyardgrass [9, 35]: 90
Plant response rating, Barnyardgrass [9, 36]: 90
Plant response rating, Blackgrass [10, 33]: 50
Plant response rating, Blackgrass [10, 34]: 60
Plant response rating, Corn (corn (Zea mays) [11]; [35]): 0
Plant response rating, Corn (corn (Zea mays) [11]; [36]): 70
Plant response rating, Foxtail, Giant [12, 35]: 90
Plant response rating, Foxtail, Giant [12, 36]: 90
Plant response rating, Pigweed [13, 35]: 0
Plant response rating, Pigweed [13, 36]: 0
Plant response rating, Ragweed [14, 33]: 0
Plant response rating, Ragweed [14, 34]: 30
Plant response rating, Ryegrass, Italian [15, 33]: 30
Plant response rating, Ryegrass, Italian [15, 34]: 30
Plant response rating, Wheat [16, 35]: 0
Plant response rating, Wheat [16, 36]: 50
Plant response rating, Barnyardgrass [17]: 80
Plant response rating, Ducksalad [18]: 100
Plant response rating, Rice (rice (Oryra sativa)): 15
Plant response rating, Sedge, Umbrella [19]: 0
Plant response rating, Barnyardgrass [20, 37]: 0
Plant response rating (scale of 0 to 100), Barnyardgrass ([20]; 62 g ai/ha): 35
Plant response rating (scale of 0 to 100), Barnyardgrass ([20]; 125 g ai/ha): 65
Plant response rating (scale of 0 to 100), Barnyardgrass ([20]; 250 g ai/ha): 90
Plant response rating, Ducksalad [21, 37]: 20
Plant response rating (scale of 0 to 100), Ducksalad ([21]; 62 g ai/ha): 50
Plant response rating (scale of 0 to 100), Ducksalad ([21]; 125 g ai/ha): 75
Plant response rating (scale of 0 to 100), Ducksalad ([21]; 250 g ai/ha): 100
Plant response rating, Rice (rice (Oryza sativa); [37]): 0
Plant response rating (scale of 0 to 100), Rice (rice (Oryza sativa); 62 g ai/ha): 0
Plant response rating (scale of 0 to 100), Rice (rice (Oryza sativa); 125 g ai/ha): 0
Plant response rating (scale of 0 to 100), Rice (rice (Oryza sativa); 250 g ai/ha): 10
Plant response rating, Sedge, Umbrella [22, 37]: 0
Plant response rating (scale of 0 to 100), Sedge, Umbrella ([22]; 62 g ai/ha): 0
Plant response rating (scale of 0 to 100), Sedge, Umbrella ([22]; 125 g ai/ha): 0
Plant response rating (scale of 0 to 100), Sedge, Umbrella ([22]; 250 g ai/ha): 0

N#CCN(C(=O)C1C(=O)NCC1c1ccc(F)c(F)c1)c1ccccc1[N+](=O)[O-] (centres unmarked) [Compound 713]
Barnyardgrass plant response rating (0 to 100 scale) [2, 38]: 0
Corn plant response rating (0 to 100 scale) (corn (Zea mays) [23]): 0
Crabgrass, Large plant response rating (0 to 100 scale) [24]: 80
Foxtail, Giant plant response rating (0 to 100 scale) [3, 38]: 40
Morningglory plant response rating (0 to 100 scale) [25]: 0
Pigweed plant response rating (0 to 100 scale) [4, 38]: 0
Velvetleaf plant response rating (0 to 100 scale) [26]: 0
Wheat plant response rating (0 to 100 scale) [27]: 0
Plant response rating, Barnyardgrass [9, 39]: 0
Plant response rating, Corn (corn (Zea mays) [11]; [39]): 0
Plant response rating, Crabgrass, Large [28]: 0
Plant response rating, Foxtail, Giant [12, 39]: 0
Plant response rating, Morningglory [29]: 0
Plant response rating, Pigweed [13, 39]: 0
Plant response rating, Velvetleaf [30]: 0
Plant response rating, Wheat [16, 39]: 0

Reference: patent US12077503B2, “Substituted cyclic amides and their use as herbicides” (FMC CORPORATION, priority 2015, dated 2024)
